One data set concerns human fibroblasts. In kind it is cell-based. The settings on record: 48 h, 200 μg/mL. How it is done: The active polypeptide of the present application with a sequence of EMHKMEPCPMYRRHLG was serially diluted in a 96-well cell culture plate to 5, 10, 25, 50, 100, 200 μg/mL, with 5 duplicated wells per concentration. The above operations were all performed under sterile conditions.
For the passage of the cell lines isolated in Example 1, the cell culture medium was firstly poured out, and the cells were washed twice with 2 mL of PBS. The liquid was discarded, and 1 mL of 0.25% (mass fraction) trypsin solution was added for digestion for 3 min until the cells were completely detached. […] The cell solution was adjusted to a concentration of 5.0×10^5 cells/mL and cultured at 37° C. under 5% carbon dioxide and saturated humidity conditions. After 24 h of passaging, the cells were used for pharmacological activity assay. The above operations were all performed under sterile conditions.
The cells were inoculated into a 96-well cell culture plate, with 100 μL per well, and incubated at 37° C. under 5% carbon dioxide and saturated humidity conditions. […] The absorbance was determined at 570 nm by a microplate reader, with 630 nm as a reference wavelength. The results were recorded and the cell viability was calculated according to the following formula: cell viability=(absorbance A570 of the experimental group/absorbance A570 of the blank control group)×100%.

For another data set, the system named is mice. As to the kind of experiment: General chronic toxicology study in mice. The class given is in vivo. The note with it: duration ≥6 months, ICH S4 guidelines. The text has this:
The Fmoc polypeptide synthesis method is a conventional method used by a person skilled in the art to prepare a polypeptide. In the case that a person skilled in the art knows that the polypeptide to be prepared needs to comprise an amino acid sequence as shown in EMHKMEPCPMYRRHLG, in combination with the existing Fmoc polypeptide synthesis method, the polypeptide to be protected in the present application may be obtained.

Where a SMILES comes first, the peptide text is derived from it.

For the molecule `CSCC[C@H](NC(=O)[C@H](CCCCN)NC(=O)[C@H](Cc1c[nH]cn1)NC(=O)[C@H](CCSC)NC(=O)[C@@H](N)CCC(=O)O)C(=O)N[C@@H](CCC(=O)O)C(=O)N1CCC[C@H]1C(=O)N[C@@H](CS)C(=O)N1CCC[C@H]1C(=O)N[C@@H](CCSC)C(=O)N[C@@H](Cc1ccc(O)cc1)C(=O)N[C@@H](CCCNC(=N)N)C(=O)N[C@@H](CCCNC(=N)N)C(=O)N[C@@H](Cc1c[nH]cn1)C(=O)N[C@@H](CC(C)C)C(=O)NCC(=O)O` [active polypeptide, EMHKMEPCPMYRRHLG] (H-EMHKMEPCPMYRRHLG-OH), in the data set with human fibroblasts, the cell viability was 265.3%±4.52. For the same molecule, the “toxic side effects in general chronic toxicology study” value with mice is “no significant toxic side effects”.
